Bridge positions count the residues as written; N and C are the ends. Peptide text beside a SMILES is read from it.
Legend:
αvβ5 integrin = αvβ5 integrin (Homo sapiens, UniProt P06756+P18084); test: Panning and binding of peptide-displaying phage on αvβ5 integrin; design: The αvβ3, αvβ5 and α5β1 integrins were isolated from human placental extracts; from tissue; host or cells: human placenta
From the text: (§1) In addition, most of the phage-binding activity in the αvβ3 preparation was captured into microliter wells coated with antibodies against the αv or β3 subunits as described previously (Koivunen et al., J. Biol. Chem., 268:20205–10 (1993). The αIIbβ3 integrin was isolated from outdated platelets (Pytela et al., Science, 231:1559–1562 (1986)).
Peptide libraries were constructed in fuse 5 vector (Scott and Smith, Science 249:386–390 (1990)) as described previously (Koivunen et al., J. Cell Biol., 124:373–380 (1994). The CX5C, CX6C, CX7C and CX9 [SEQ ID NOs:39–42, respectively] libraries were prepared using synthetic oligonucleotides containing core sequences TGT(NNK)5TGT, TGT(NNK)6TGT, TGT(NNK)7TGT and TGT(NNK)9 [SEQ ID NOS:43–46, respectively] (N=equal molar mixture of A, C, G, T; K=G or T), respectively. The oligonucleotides were made double-stranded by PCR amplification with 5 cycles, purified and ligated to the N-terminus of pIII gene of fuse 5 vector. […]
(§2) Binding of individual cloned phage to integrins was studied in microliter wells as described in Koivunen et al., J. Cell. […] Phage that were bound were determined by their ability to infect F-pilus positive K91kan bacteria. Bacteria were grown overnight in microliter wells in the presence of tetracycline and the absorbance indicative of bacterial growth was read at 600 nm with an ELISA plate reader.

αvβ1 integrin = test: Attachment of αvβ1-expressing B2/v7 cells to immobilized […] peptide; assay type: cell-based
From the text: Cell lines expressing fibronectin-binding integrins were used to determine peptide activities against these integrins in the cell attachment assay described by Ruoslahti et al., Meth. Enzymol., 144:803–831 (1982), which is incorporated herein by reference. Human plasma fibronectin was iodinated as described by Morla and Ruoslahti, J. Cell Biol., 118:421–429 (1992), which is incorporated herein by reference. Vitronectin was obtained from Telios Pharmaceuticals (San Diego, Calif.). […] Peptide was coated on plastic by incubating at 37° C. for 2 hours in phosphate buffered saline containing 0.25% glutaraldehyde to crosslink the peptide. Free binding sites on the plastic were blocked using BSA. Approximately 1×10^5 cells per well were allowed to attach for 1 hour in the presence or absence of competing peptides. Bound cells were quantitated by staining with 0.1% amido black.
In addition to the inhibition of cell attachment to natural ligands, attachment and inhibition assays were performed using the […] [SEQ ID NO:6] peptide as substrate. The microliter well were coated with […] [SEQ ID NO:6] using glutaraldehyde as described above. […] Bound cells were quantitated by staining with 0.1% amido black.

α5β1 integrin [1] = molecular target: T1, α5β1 integrin (Homo sapiens, UniProt P05556+P08648); test: Panning and binding of peptide-displaying phage on α5β1 integrin; details: phage-displayed sequence
T1 construct: The αvβ3, αvβ5 and α5β1 integrins were isolated from human placental extracts; from tissue; host or cells: human placenta
From the text: as §1
Peptide libraries were constructed in fuse 5 vector (Scott and Smith, Science 249:386–390 (1990)) as described previously (Koivunen et al., J. Cell Biol., 124:373–380 (1994). The CX5C, CX6C, CX7C and CX9 [SEQ ID NOs:39–42, respectively] libraries were prepared using synthetic oligonucleotides containing core sequences TGT(NNK)5TGT, TGT(NNK)6TGT, TGT(NNK)7TGT and TGT(NNK)9 [SEQ ID NOS:43–46, respectively] (N=equal molar mixture of A, C, G, T; K=G or T), respectively. The oligonucleotides were made double-stranded by PCR amplification with 5 cycles, purified and ligated to the N-terminus of pIII gene of fuse 5 vector. The CX5C, CX6C, CX7C and CX9 [SEQ ID NOS:39–42, respectively] vectors were transfected into MC1061 cells using 16, 60, 263 and 250 electroporations, respectively. Bacteria were cultured for 24 hours in the presence of 20 μg/ml of tetracycline, and phage were collected from the supernatant by precipitation twice with polyethylene glycol. The phage pellets were dissolved at approximately 10^13 transducing units (TU)/ml in TBS buffer containing 0.02% NaN3 and stored at 4° C. The yields of the CX5C, CX6C, CX7C and CX9 [SEQ ID NOS:39–42, respectively] primary libraries were 3.5×10^8, 1.1×10^9, 4.5×10^5 and 3.5×10^8 clones, respectively. […]
as §2

α5β1 integrin [2] = molecular target: T1, α5β1 integrin; test: Inhibition of 125I-fibronectin binding to α5β1 integrin by competing peptides; details: 1 hour, compared with cyclic CRGDC peptide, FIG. 1
Method: as §1
The α5β1 integrin was bound to α5 specific antibody-coated wells by incubating 300 μl of a placental extract per well in TBS buffer containing 0.1 M octylglucoside, 1 mM CaCl2, 1 mM MnCl2 and proteinase inhibitors overnight at 4° C., (Koivunen et al., J. Biol. Chem., 268: 20205–20210 (1993). Alternatively, the α5β1 integrin was directly coated on plastic as described above.
The wells were extensively washed with TBS containing 0.1% NP-40. ^125I-labeled fibronectin (100,000 cpm per well) was incubated in the presence of competing peptides for 1 hour at 25° C. in 100 μl volume of TBS containing 0.1% NP-40 and 1 mM MnCl2, as described by Koivunen et al., J. Biol. Chem. 268: 20205–20210 (1993). After repeated washing, the bound radioactivity was quantitated with a gamma counter.
Initially, […] [SEQ ID NO:12] was examined for its ability to inhibit binding of fibronectin, which is the natural ligand for α5β1. […] Following incubation, the wells were washed and bound radioactivity was determined with a gamma counter.

Sequence of αvβ5 integrin (P06756 31-889 limits assumed): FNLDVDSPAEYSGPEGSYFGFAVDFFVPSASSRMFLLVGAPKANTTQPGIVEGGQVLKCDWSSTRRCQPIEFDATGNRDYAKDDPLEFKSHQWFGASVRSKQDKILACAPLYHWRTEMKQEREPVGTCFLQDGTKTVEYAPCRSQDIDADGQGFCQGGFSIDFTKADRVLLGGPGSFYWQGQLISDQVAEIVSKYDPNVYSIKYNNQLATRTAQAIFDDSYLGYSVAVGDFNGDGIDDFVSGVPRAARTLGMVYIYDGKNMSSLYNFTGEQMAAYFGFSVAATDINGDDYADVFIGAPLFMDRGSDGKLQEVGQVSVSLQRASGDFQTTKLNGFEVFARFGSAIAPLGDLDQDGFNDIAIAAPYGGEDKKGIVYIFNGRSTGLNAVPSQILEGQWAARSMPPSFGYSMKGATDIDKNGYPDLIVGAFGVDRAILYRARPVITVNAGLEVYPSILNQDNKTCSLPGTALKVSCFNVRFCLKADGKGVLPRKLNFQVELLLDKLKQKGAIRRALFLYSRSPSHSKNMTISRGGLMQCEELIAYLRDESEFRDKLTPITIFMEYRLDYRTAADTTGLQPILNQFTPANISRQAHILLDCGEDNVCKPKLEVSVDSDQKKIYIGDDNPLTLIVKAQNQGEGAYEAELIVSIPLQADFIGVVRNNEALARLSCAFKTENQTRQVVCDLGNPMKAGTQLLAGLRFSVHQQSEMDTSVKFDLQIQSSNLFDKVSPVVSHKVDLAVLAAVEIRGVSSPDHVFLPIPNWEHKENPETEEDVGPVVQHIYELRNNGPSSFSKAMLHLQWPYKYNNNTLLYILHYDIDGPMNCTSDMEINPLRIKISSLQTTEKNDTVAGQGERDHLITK
Sequence of αvβ5 integrin (P06756 891-1048 partner limits assumed): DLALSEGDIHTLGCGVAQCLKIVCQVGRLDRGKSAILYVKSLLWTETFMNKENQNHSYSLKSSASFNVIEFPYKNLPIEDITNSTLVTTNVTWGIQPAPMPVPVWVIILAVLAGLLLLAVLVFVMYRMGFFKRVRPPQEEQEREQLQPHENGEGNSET
Sequence of αvβ5 integrin (P18084 24-799): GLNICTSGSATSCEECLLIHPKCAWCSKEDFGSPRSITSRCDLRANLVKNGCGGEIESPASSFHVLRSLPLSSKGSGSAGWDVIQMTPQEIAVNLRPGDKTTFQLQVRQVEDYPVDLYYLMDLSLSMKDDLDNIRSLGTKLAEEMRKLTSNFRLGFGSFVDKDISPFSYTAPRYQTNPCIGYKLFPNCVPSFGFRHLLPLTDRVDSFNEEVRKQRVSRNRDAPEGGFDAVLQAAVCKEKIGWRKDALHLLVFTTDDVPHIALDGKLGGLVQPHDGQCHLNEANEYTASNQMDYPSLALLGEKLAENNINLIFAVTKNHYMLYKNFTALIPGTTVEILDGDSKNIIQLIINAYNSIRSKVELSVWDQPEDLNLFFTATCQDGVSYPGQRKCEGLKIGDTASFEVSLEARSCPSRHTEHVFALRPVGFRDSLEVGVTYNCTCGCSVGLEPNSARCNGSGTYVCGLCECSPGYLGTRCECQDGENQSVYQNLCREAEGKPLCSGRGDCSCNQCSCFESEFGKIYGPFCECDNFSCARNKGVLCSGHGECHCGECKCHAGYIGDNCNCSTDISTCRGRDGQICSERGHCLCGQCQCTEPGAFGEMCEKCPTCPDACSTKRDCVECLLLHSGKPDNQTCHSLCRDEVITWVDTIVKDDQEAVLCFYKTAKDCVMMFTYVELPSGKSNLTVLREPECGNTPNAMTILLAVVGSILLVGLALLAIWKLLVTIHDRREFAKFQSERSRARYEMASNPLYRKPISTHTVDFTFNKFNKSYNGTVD
T1 sequence (P08648 42-894 limits assumed): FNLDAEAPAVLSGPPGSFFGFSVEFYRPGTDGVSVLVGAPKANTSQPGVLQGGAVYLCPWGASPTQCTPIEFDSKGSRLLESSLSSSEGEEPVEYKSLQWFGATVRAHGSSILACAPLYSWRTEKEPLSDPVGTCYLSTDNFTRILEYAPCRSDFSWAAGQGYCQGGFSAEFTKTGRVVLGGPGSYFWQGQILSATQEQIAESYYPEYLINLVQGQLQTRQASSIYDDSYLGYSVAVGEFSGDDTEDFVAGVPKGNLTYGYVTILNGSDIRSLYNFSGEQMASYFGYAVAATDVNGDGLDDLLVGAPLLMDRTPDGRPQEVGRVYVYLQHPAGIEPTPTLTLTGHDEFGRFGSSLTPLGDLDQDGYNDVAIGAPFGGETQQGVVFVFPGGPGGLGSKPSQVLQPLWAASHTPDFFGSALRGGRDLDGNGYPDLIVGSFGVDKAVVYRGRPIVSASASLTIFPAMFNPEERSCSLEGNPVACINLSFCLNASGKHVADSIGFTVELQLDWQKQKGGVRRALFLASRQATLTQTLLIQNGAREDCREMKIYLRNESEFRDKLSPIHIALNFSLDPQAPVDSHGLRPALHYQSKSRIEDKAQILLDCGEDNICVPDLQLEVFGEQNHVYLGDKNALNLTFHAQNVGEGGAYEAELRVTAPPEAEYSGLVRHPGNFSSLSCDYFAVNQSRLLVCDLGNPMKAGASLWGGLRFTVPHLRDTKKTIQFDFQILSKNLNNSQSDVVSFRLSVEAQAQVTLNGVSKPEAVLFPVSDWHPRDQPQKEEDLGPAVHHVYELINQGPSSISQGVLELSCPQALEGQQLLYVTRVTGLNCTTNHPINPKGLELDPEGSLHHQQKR
T1 sequence (P08648 895-1049 partner limits assumed): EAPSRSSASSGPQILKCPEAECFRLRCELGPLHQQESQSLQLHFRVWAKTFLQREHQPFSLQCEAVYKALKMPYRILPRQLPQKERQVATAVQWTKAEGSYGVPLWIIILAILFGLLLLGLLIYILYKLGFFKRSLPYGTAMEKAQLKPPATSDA
T1 sequence (P05556 21-798): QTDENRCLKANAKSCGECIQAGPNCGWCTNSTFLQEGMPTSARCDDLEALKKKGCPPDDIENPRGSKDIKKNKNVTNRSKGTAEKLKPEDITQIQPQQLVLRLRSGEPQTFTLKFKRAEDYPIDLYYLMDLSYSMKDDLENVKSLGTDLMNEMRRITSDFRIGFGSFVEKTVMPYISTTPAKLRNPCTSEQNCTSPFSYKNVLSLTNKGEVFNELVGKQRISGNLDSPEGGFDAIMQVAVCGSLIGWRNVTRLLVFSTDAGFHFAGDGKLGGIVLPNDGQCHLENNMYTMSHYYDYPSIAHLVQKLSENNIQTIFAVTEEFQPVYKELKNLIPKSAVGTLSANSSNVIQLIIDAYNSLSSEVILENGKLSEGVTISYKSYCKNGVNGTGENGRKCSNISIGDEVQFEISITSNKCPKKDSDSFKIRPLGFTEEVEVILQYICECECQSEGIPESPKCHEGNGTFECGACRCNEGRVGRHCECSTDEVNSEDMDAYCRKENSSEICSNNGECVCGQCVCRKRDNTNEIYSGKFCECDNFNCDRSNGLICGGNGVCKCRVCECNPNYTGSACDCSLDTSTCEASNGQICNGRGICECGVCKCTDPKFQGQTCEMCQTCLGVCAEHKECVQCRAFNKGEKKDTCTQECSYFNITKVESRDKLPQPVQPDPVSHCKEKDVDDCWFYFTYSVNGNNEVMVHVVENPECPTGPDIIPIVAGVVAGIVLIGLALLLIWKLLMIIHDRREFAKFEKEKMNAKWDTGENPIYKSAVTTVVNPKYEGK

Compound | integrin preference of phage expressing the peptide (αvβ5 integrin; phage attachment experiments) | binding of peptide-displaying phage to the αvβ5 integrin (αvβ5 integrin; phage-displayed sequence) | peptide coating concentration required to produce significant attachment (αvβ1 integrin) [mg/mL] | binding of peptide-displaying phage to the α5β1 integrin (α5β1 integrin [1]) | inhibition of fibronectin binding to α5β1 (α5β1 integrin [2])
C[C@H](N)C(=O)N[C@H]1CSSC[C@@H](C(=O)NCC(=O)O)NC(=O)[C@H](Cc2ccccc2)NC(=O)[C@@H]2CSSC[C@H](NC(=O)[C@H](CC(=O)O)NC1=O)C(=O)N[C@@H](CCCNC(=N)N)C(=O)NCC(=O)N[C@@H](CC(=O)O)C(=O)N2 (H-ACDCRGDCFCG-OH; disulfide 2-10, 4-8) | bound preferentially to the αvβ5 integrin | bound strongly | – | – | –
GACRRETAWACGA | – | – | 1 | selectively bind | equally as well as the cyclic CRGDC

From patent US7067619B2, “Integrin-binding peptides” (La Jolla Cancer Research Foundation, priority 1993, dated 2006)
